How the values were obtained:
hNPFF1R = target: T1, hNPFF1R (Homo sapiens, UniProt Q9GZQ6); test: Glo Sensor cAMP assay in HEK-293 expressing hNPFF1R; format: cell-based
T1 construct: expressed in transfected cells
Experimental: The functional characterization of the selected compounds was performed by Glo Sensor cAMP kinetic assay, a validated approach for measuring Gαi/s activation by GPCRs (DiRaddo et al., 2014; Gilissen et al., 2015). HEK-Glo cells expressing either NPFF1 or NPFF2 receptors were suspended (10^6 cells per mF) in physiological Hepes buffer (10 mM HEPES, 0.4 mM NaH2PO4, 137.5 mM NaCl, 1.25 mM MgCl2, 1.25 mM CaCl2, 6 mM KCl, 10 mM glucose and 1 mg/mF bovine serum albumin, pH 7.4) supplemented with 1 mM D-Fuciferine. After equilibration for 2 h at 25° C., luminescence levels were recorded in real time in 96-well plates using a Flexstation^R 3 (Molecular Devices, Sunnyvale Calif., USA). Non-specific effect of the different compounds was evaluated in HEK-Glo cells without any recombinant human RF-amide receptors. To test the agonist activity on NPFF1R and NPFF2R, compounds were injected 15 minutes before addition of forskolin (0.5 μM) and readings were pursued for 90 minutes. To evaluate their antagonist properties, compounds were pre-incubated with cells for 15 minutes before prototypical agonists for NPFF1R (RFRP-3) and NPFF2R (NPFF) receptors. According to their preferential coupling to Gi/o proteins, the stimulation of NPFF1R and NPFF2R by agonists was monitored as a dose-dependent reduction in steady-state luminescence levels, reflecting the inhibition of forskolin-induced cAMP accumulation. Experiments were performed at 25° C. in the presence of 0.5 mM IBMX to prevent the degradation of cAMP by phosphodiesterases.

[1] = tested on: NPFFR1 KO and wild-type littermates; test: Morphine-induced hyperalgesia and tolerance in NPFF1R knockout mice and WT littermates; format: in vivo
[2] = target: T2, human NPFFR1 (hNPFFR1) receptor (Homo sapiens, UniProt Q9GZQ6); test: Human NPFFR1 evaluation using BRET biosensors in HEK-293 T cells; format: cell-based; conditions: hNPFFR1 in HEK-293 T cells, stimulated by EC80 RFRP-3, read-out: IC50 of antagonist activity
T2 construct: expressed in transfected cells; host or cells: HEK-293 T cells, transient co-transfection
T2 sequence (Q9GZQ6 whole entry): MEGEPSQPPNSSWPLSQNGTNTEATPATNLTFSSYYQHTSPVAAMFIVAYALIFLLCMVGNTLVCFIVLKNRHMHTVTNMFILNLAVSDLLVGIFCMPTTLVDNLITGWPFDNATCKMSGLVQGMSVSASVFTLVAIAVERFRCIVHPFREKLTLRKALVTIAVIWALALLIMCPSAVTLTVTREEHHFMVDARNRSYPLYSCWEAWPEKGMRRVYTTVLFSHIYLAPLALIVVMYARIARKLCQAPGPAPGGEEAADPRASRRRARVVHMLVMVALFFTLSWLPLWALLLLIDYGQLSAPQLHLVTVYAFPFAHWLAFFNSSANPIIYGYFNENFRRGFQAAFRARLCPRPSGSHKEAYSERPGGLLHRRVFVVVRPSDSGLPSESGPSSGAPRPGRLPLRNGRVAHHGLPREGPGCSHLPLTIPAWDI
In short: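 HEK-293 T cells transiently co-expressing hNPFFR1, GαoB and a Gi-effector BRET biosensor pair; agonist read after 10 min compound alone, then antagonism after EC80 RFRP-3 for 10 min. IC50 from 20-point curves over 6 logs, duplicates in two independent experiments.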

C57BF6/N male mice [3] = test: Fentanyl-induced hyperalgesia, tail immersion test; format: in vivo; conditions: for Hyperalgesia index (HI) d1 to d4: 1j 5 mg/kg p.o. or vehicle 35 min before fentanyl 4×60 μg/kg s.c.
C57BF6/N male mice [4] = test: Incisional pain model, Von Frey test; format: in vivo

T1 sequence (Q9GZQ6 whole entry): as above

Nc1ccc(-c2cccc(Cl)c2Cl)c(N)n1 [Compound 1j, 3-(2,3-dichlorophenyl)pyridine-2,6-diamine]
antagonist activity: effect on dose response curve of NPVF (RFRP-3), forskolin-stimulated cAMP (hNPFF1R; HEK-293 cells expressing hNPFF1R, FIG. 7): efficiently shifted to the right the dose response curve of NPVF | effect of compound tested alone (agonist activity) (hNPFF1R; cells expressing hNPFF1R, forskolin 0.5 μM): had no effect | morphine-induced hyperalgesia in NPFF1R KO mice ([1]; NPFF1R KO, 1j 5 mg/kg oral before daily morphine 10 mg/kg s.c., FIG. 5B, C): did not show any significant effect | morphine-induced hyperalgesia in WT mice ([1]; WT littermates, 1j 5 mg/kg oral before daily morphine 10 mg/kg s.c., FIG. 5B, C): significantly attenuated this hyperalgesia | morphine analgesia at day 8 in WT mice (tolerance) ([1]; WT littermates, morphine 5 mg/kg s.c., 1j 5 mg/kg oral, FIG. 5D): failed to restore morphine analgesia at day 8 | IC50 [2]: 100 to 500 nM | fentanyl hyperalgesia (hyperalgesia index d1 to d4) (C57BF6/N male mice [3]; 5 mg/kg sc. 20 min before fentanyl 4×60 μg/kg sc., FIG. 6B): significant anti-hyperalgesic effect | development of hyperalgesia induced by fentanyl, dose effect (C57BF6/N male mice [3]; 0.2, 1 and 5 mg/kg, sc, 20 min before fentanyl, FIG. 1E, F): dose-dependently prevented | analgesic effect of fentanyl (AUC) (C57BF6/N male mice [3]; 1j 5 mg/kg p.o. in Kolliphor EL or vehicle before fentanyl 4×60 μg/kg s.c., FIG. 1C): 11.4±3 | ED50 (C57BF6/N male mice [3]; Mus musculus, sc, doses 0.2, 1 and 5 mg/kg, FIG. 1E, read-out: ED50, prevention of fentanyl-induced hyperalgesia): ~0.5 mg/kg | effect of compound alone on basal nociceptive response (C57BF6/N male mice [3]; mice, tail immersion 48° C., FIG. 1A): did not have any effect | Hyperalgesia index (HI) d1 to d4 (C57BF6/N male mice [3]; vehicle Kolliphor EL): −1.8±1.2 | Hyperalgesia index (HI) d1 to d4 (C57BF6/N male mice [3]; vehicle tween 80): 2.2±0.3 | mechanical allodynia after paw incision (allodynia index d1-d6), drug alone (C57BF6/N male mice [4]; morphine 2.5 mg/kg sc. alone or 1j 5 mg/kg po alone, FIG. 3B): slightly attenuated but not significantly the mechanical allodynia | mechanical allodynia after paw incision (allodynia index d1-d6), pre-treatment before morphine (C57BF6/N male mice [4]; mouse, in vivo): significantly enhanced morphine effect at preventing the mechanical allodynia

— patent US20210221784A1, “COMPOUNDS AND COMPOSITIONS FOR THE TREATMENT OF PAIN” (Université de Strasbourg, priority 2018, published 2021)
